From publication PMC12207908, “The broad‐spectrum antimicrobial peptide BMAP‐27B potentiates carbapenems against NDM‐producing pathogens in food animals” (mLife, 2025)
Converted amounts (≈) assume the structure as drawn.

Tests used:
Test in all cases: MIC, broth microdilution
Format in all cases: cell-based
[1] = test system: CREC2; conditions: Escherichia coli, MHB, 1 × 10^6 CFU/ml, 16–18 h, 37°C, independent triplicates
Description: (§1) The MIC of BMAP‐27B and other antibiotics was determined using the broth microdilution method, following the guidelines established by the Clinical and Laboratory Standards Institute (CLSI). Briefly, the bacterial cultures were grown to the logarithmic growth phase and subsequently diluted in Mueller–Hinton broth (MHB) to achieve a final concentration of 1 × 10^6 CFU/ml. BMAP‐27B and the other antibiotics were prepared in twofold serial dilutions in MHB and mixed with an equal volume of bacterial suspension in 96‐well polypropylene microtiter plates.

[2] = test system: CREC3; conditions: Escherichia coli, MHB, 1 × 10^6 CFU/ml, 16–18 h, 37°C, independent triplicates
Description: as §1

[3] = test system: CRAB2; conditions: Acinetobacter baumannii, MHB, 1 × 10^6 CFU/ml, 16–18 h, 37°C, independent triplicates
Description: as §1

[4] = test system: CRKP1; conditions: Klebsiella pneumoniae, MHB, 1 × 10^6 CFU/ml, 16–18 h, 37°C, independent triplicates
Description: as §1

[5] = test system: CRAB1; conditions: Acinetobacter baumannii, MHB, 1 × 10^6 CFU/ml, 16–18 h, 37°C, independent triplicates
Description: as §1

[6] = test system: CREC7; conditions: Escherichia coli, MHB, 1 × 10^6 CFU/ml, 16–18 h, 37°C, independent triplicates
Description: as §1

[7] = test system: PRCB1; conditions: Citrobacter, MHB, 1 × 10^6 CFU/ml, 16–18 h, 37°C, independent triplicates
Description: as §1

[8] = test system: CRKP3; conditions: Klebsiella pneumoniae, MHB, 1 × 10^6 CFU/ml, 16–18 h, 37°C, independent triplicates
Description: as §1

[9] = test system: CRCB1; conditions: Citrobacter, MHB, 1 × 10^6 CFU/ml, 16–18 h, 37°C, independent triplicates
Description: as §1

[10] = test system: En. faecium (Clinical; MDR; pig, faeces), upper row; conditions: Enterococcus faecium, En. faecium clinical MDR isolate, MHB, 16–18 h, 37°C, independent triplicates
Description: as §1

[11] = test system: CRCB3; conditions: Citrobacter, MHB, 1 × 10^6 CFU/ml, 16–18 h, 37°C, independent triplicates
Description: as §1

[12] = test system: CRCB2; conditions: Citrobacter, MHB, 1 × 10^6 CFU/ml, 16–18 h, 37°C, independent triplicates
Description: as §1

[13] = test system: CREC6; conditions: Escherichia coli, MHB, 1 × 10^6 CFU/ml, 16–18 h, 37°C, independent triplicates
Description: as §1

[14] = test system: P. aeruginosa UCBPP-PA14; conditions: Pseudomonas aeruginosa, MHB, 1 × 10^6 CFU/ml, 16–18 h, 37°C, independent triplicates
Description: as §1

[15] = test system: Salmonella SL1344; conditions: MHB, 1 × 10^6 CFU/ml, 16–18 h, 37°C, independent triplicates
Description: as §1

[16] = test system: CRKP5; conditions: Klebsiella pneumoniae, MHB, 1 × 10^6 CFU/ml, 16–18 h, 37°C, independent triplicates
Description: as §1

[17] = test system: CREC1; conditions: Escherichia coli, MHB, 1 × 10^6 CFU/ml, 16–18 h, 37°C, independent triplicates
Description: as §1

[18] = test system: PREC1; conditions: Escherichia coli, MHB, 1 × 10^6 CFU/ml, 16–18 h, 37°C, independent triplicates
Description: as §1

[19] = test system: En. faecium (Clinical; MDR; pig, faeces), lower row; conditions: Enterococcus faecium, En. faecium clinical MDR isolate, MHB, 16–18 h, 37°C, independent triplicates
Description: as §1

[20] = test system: CREC4; conditions: Escherichia coli, MHB, 1 × 10^6 CFU/ml, 16–18 h, 37°C, independent triplicates
Description: as §1

[21] = test system: PREC3; conditions: Escherichia coli, MHB, 1 × 10^6 CFU/ml, 16–18 h, 37°C, independent triplicates
Description: as §1

[22] = test system: PREC2; conditions: Escherichia coli, MHB, 1 × 10^6 CFU/ml, 16–18 h, 37°C, independent triplicates
Description: as §1

[23] = test system: CRKP2; conditions: Klebsiella pneumoniae, MHB, 1 × 10^6 CFU/ml, 16–18 h, 37°C, independent triplicates
Description: as §1

[24] = test system: P. aeruginosa UCBPP-PA01; conditions: Pseudomonas aeruginosa, UCBPPPA01, MHB, 1 × 10^6 CFU/ml, 16–18 h, 37°C, independent triplicates
Description: as §1

[25] = test system: CREC5; conditions: Escherichia coli, MHB, 1 × 10^6 CFU/ml, 16–18 h, 37°C, independent triplicates
Description: as §1

[26] = test system: CRKP4; conditions: Klebsiella pneumoniae, MHB, 1 × 10^6 CFU/ml, 16–18 h, 37°C, independent triplicates
Description: as §1

[27] = test system: CRKP6; conditions: Klebsiella pneumoniae, MHB, 1 × 10^6 CFU/ml, 16–18 h, 37°C, independent triplicates
Description: as §1

[28] = test system: S. aureus ATCC; conditions: Staphylococcus aureus, MHB, 1 × 10^6 CFU/ml, 16–18 h, 37°C, independent triplicates
Description: as §1

Row | Structure (SMILES) | MIC [1] | MIC [2] | MIC [3] | MIC [4] | MIC [5] | MIC [6] | MIC [7] | MIC [8] | MIC [9] | MIC [10] | MIC [13] | MIC [14] | MIC [15] | MIC [17] | MIC [18] | MIC [19] | MIC [20] | MIC [21] | MIC [22] | MIC [28] | also measured
1 | CC1(C)S[C@@H]2[C@H](NC(=O)[C@H](N)c3ccccc3)C(=O)N2[C@H]1C(=O)O [AMP, ampicillin] | > 32 µg/mL | > 32 µg/mL | > 32 µg/mL | > 32 µg/mL | > 32 µg/mL | > 32 µg/mL | > 32 µg/mL | > 32 µg/mL | > 32 µg/mL | 32 µg/mL (≈ 91.6 µM) | > 32 µg/mL | > 32 µg/mL | 8 µg/mL (≈ 22.9 µM) | > 32 µg/mL | > 32 µg/mL | > 32 µg/mL | > 32 µg/mL | > 32 µg/mL | > 32 µg/mL | 4 µg/mL (≈ 11.4 µM) | MIC [11]: > 32 µg/mL; MIC [12]: > 32 µg/mL; MIC [16]: > 32 µg/mL; MIC [23]: > 32 µg/mL; MIC [24]: > 32 µg/mL; MIC [25]: > 32 µg/mL; MIC [26]: > 32 µg/mL; MIC [27]: > 32 µg/mL
2 | CN(C)[C@@H]1C(O)=C(C(N)=O)C(=O)[C@@]2(O)C(O)=C3C(=O)c4c(O)cccc4[C@@](C)(O)[C@H]3C[C@@H]12 [TET, tetracycline] | > 32 µg/mL | > 32 µg/mL | > 32 µg/mL | > 32 µg/mL | > 32 µg/mL | > 32 µg/mL | > 32 µg/mL | > 32 µg/mL | > 32 µg/mL | > 32 µg/mL | > 32 µg/mL | 16 µg/mL (≈ 36 µM) | 4 µg/mL (≈ 9 µM) | > 32 µg/mL | > 32 µg/mL | > 32 µg/mL | > 32 µg/mL | > 32 µg/mL | > 32 µg/mL | < 1 µg/mL | MIC [11]: > 32 µg/mL; MIC [12]: > 32 µg/mL; MIC [16]: > 32 µg/mL; MIC [23]: > 32 µg/mL; MIC [24]: 16 µg/mL (≈ 36 µM); MIC [25]: > 32 µg/mL; MIC [26]: > 32 µg/mL; MIC [27]: 32 µg/mL (≈ 72 µM)
3 | CNC(C)C1CCC(N)C(OC2C(N)CC(N)C(OC3OCC(C)(O)C(NC)C3O)C2O)O1 (stereo not drawn) [GEN, gentamicin] | > 32 µg/mL | > 32 µg/mL | > 32 µg/mL | – | > 32 µg/mL | – | – | – | – | 8 µg/mL (≈ 16.8 µM) | > 32 µg/mL | 2 µg/mL (≈ 4.19 µM) | 4 µg/mL (≈ 8.38 µM) | > 32 µg/mL | > 32 µg/mL | 32 µg/mL (≈ 67 µM) | > 32 µg/mL | 2 µg/mL (≈ 4.19 µM) | > 32 µg/mL | 2 µg/mL (≈ 4.19 µM) | –
4 | CC(C)(O/N=C(\C(=O)N[C@@H]1C(=O)N2C(C(=O)[O-])=C(C[n+]3ccccc3)CS[C@H]12)c1csc(N)n1)C(=O)O [CAZ, ceftazidime] | > 32 µg/mL | > 32 µg/mL | > 32 µg/mL | > 32 µg/mL | > 32 µg/mL | > 32 µg/mL | > 32 µg/mL | > 32 µg/mL | > 32 µg/mL | > 32 µg/mL | > 32 µg/mL | 2 µg/mL (≈ 3.66 µM) | < 1 µg/mL | > 32 µg/mL | > 32 µg/mL | > 32 µg/mL | > 32 µg/mL | 16 µg/mL (≈ 29.3 µM) | > 32 µg/mL | 4 µg/mL (≈ 7.32 µM) | MIC [11]: > 32 µg/mL; MIC [12]: > 32 µg/mL; MIC [16]: > 32 µg/mL; MIC [23]: > 32 µg/mL; MIC [24]: 2 µg/mL (≈ 3.66 µM); MIC [25]: > 32 µg/mL; MIC [26]: > 32 µg/mL; MIC [27]: > 32 µg/mL
